Experimental data reported in patent US6737383B1, “Herbicidal oxadiazolidines” (priority 1999, dated 2004).

Tests used:
bedstraw = assay: Test B pre/postemergence bedstraw; type: in vivo, Galium aparine; details: Rate 62 g/ha, Postemergence; scale 0 to 10, 0 no effect, 10 complete control
Summary of the method: (§1)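 Response is a visual 0-to-10 score relative to untreated plants, where 0 means no effect and 10 means complete control, taken twelve to sixteen days after application. Treatments went onto soil at planting and onto foliage of 1- to 4-leaf plants, using a surfactant-containing non-phytotoxic solvent.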

purple nutsedge = assay: Test B pre/postemergence purple nutsedge; type: in vivo, Cyperus rotundus
Summary of the method: as §1

blackgrass = assay: Test B pre/postemergence blackgrass; type: in vivo, Alopecurus myosuroides
Summary of the method: as §1

pigweed = assay: Test B pre/postemergence pigweed; type: in vivo, Amaranthus retroflexus
Summary of the method: as §1

bamyardgrass = assay: Test B flood test barnyardgrass; type: in vivo, Echinochloa crus-galli
Summary of the method: (§2)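 Plants were grown to the 2-leaf stage before treatment with test chemical, then held in a greenhouse for twelve to sixteen days. Injury was visually rated against untreated controls on a 0–10 scale, where 0 is no effect and 10 is complete control.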

soybean = assay: Test B pre/postemergence soybean; type: in vivo, Glycine max
Summary of the method: as §1

velvetleaf = assay: Test B pre/postemergence velvetleaf; type: in vivo, Abutilon theophrasti
Summary of the method: as §1

wild oat = assay: Test B pre/postemergence wild oat; type: in vivo, Avena fatua
Summary of the method: as §1

cocklebur = assay: Test B pre/postemergence cocklebur; type: in vivo, Xanthium strumarium
Summary of the method: as §1

wheat = assay: Test B pre/postemergence wheat; type: in vivo, Triticum aestivum
Summary of the method: as §1

sugar beet = assay: Test B pre/postemergence sugar beet; type: in vivo, Beta vulgaris
Summary of the method: as §1

crabgrass = assay: Test B pre/postemergence crabgrass; type: in vivo, Digitaria sanguinalis
Summary of the method: as §1

rape = assay: Test B pre/postemergence rape; type: in vivo, Brassica napus
Summary of the method: as §1

corn = assay: Test B pre/postemergence corn; type: in vivo, Zea mays
Summary of the method: as §1

smallflower flatsedge = assay: Test B flood test smallflower flatsedge; type: in vivo, Cyperus difformis
Summary of the method: as §2

surinam grass = assay: Test B pre/postemergence surinam grass; type: in vivo, Brachiaria decumbens
Summary of the method: as §1

[1] = Postemergence, Rate 250 g/ha, scale 0 to 10
[2] = Postemergence, Rate 500 g/ha, scale of 0 to 10 where 0 is no effect and 10 is complete control
[3] = Preemergence, Rate 62 g/ha, scale of 0 to 10 where 0 is no effect and 10 is complete control
[4] = Preemergence, Rate 125 g/ha, scale of 0 to 10 where 0 is no effect and 10 is complete control
[5] = Preemergence, Rate 250 g/ha, scale 0 to 10, 0 is no effect, 10 is complete control
[6] = Preemergence, Rate 500 g/ha, scale 0 to 10, 0 is no effect, 10 is complete control
[7] = Rate 62 g/ha, Postemergence, scale 0 to 10, 0 no effect, 10 complete control
[8] = Rate 125 g/ha, Postemergence, scale 0 to 10, 0 is no effect, 10 is complete control
[9] = Rate 62 g/ha, flood test species, Pre-emergence, visual evaluation after twelve to sixteen days
[10] = Rate 125 g/ha, under heading Pre-emergence, flood test species, visual evaluation after twelve to sixteen days
[11] = Rate 250 g/ha, Pre-emergence (flood test species), scale 0 to 10, 0 is no effect, 10 is complete control
[12] = Rate 500 g/ha, Pre-emergence, flood test species, scale 0 to 10 (0 no effect, 10 complete control)

## Cc1nc(C)c(C(C)n2c(=O)on(C(=O)N(c3ccc(F)cc3F)C(C)C)c2=O)s1 (centres unmarked) [Compound 443]
bedstraw
  Bedstraw plant response rating: 0
Purple nutsedge; [1]
  Nutsedge plant response rating: 0
Purple nutsedge; [2]
  Nutsedge plant response rating: 0
Purple nutsedge; [3]
  Plant response rating, Nutsedge: 0
Purple nutsedge; [4]
  Plant response rating, Nutsedge: 0
Purple nutsedge; [5]
  Nutsedge plant response rating: 0
Purple nutsedge; [6]
  Nutsedge plant response rating: 0
Purple nutsedge; [7]
  Nutsedge plant response rating: 0
Purple nutsedge; [8]
  Nutsedge plant response rating: 0
blackgrass; [1]
  Blackgrass plant response rating: 0
blackgrass; [2]
  Blackgrass plant response rating: 0
blackgrass; [3]
  Plant response rating, Blackgrass: 0
blackgrass; [4]
  Plant response rating, Blackgrass: 0
blackgrass; [5]
  Blackgrass plant response rating: 0
blackgrass; [6]
  Blackgrass plant response rating: 0
blackgrass; [7]
  Blackgrass plant response rating: 0
blackgrass; [8]
  Blackgrass plant response rating: 0
pigweed; [1]
  Redroot pigweed plant response rating: 0
pigweed; [2]
  Redroot pigweed plant response rating: 0
pigweed; [3]
  Plant response rating, Redroot pigweed: 0
pigweed; [4]
  Plant response rating, Redroot pigweed: 0
pigweed; [5]
  Redroot pigweed plant response rating: 0
pigweed; [6]
  Redroot pigweed plant response rating: 6
pigweed; [7]
  Redroot pigweed plant response rating: 0
pigweed; [8]
  Redroot pigweed plant response rating: 0
bamyardgrass; [9]
  Plant response rating, Barnyardgrass (0 to 10 scale, 0 is no effect, 10 is complete control): 0
bamyardgrass; [10]
  Barnyardgrass plant response rating (0 to 10 scale, 0 is no effect, 10 is complete control): 0
bamyardgrass; [11]
  Barnyardgrass plant response rating: 0
bamyardgrass; [12]
  Barnyardgrass plant response rating: 0
soybean; [1]
  Soybean plant response rating: 1
soybean; [2]
  Soybean plant response rating: 2
soybean; [3]
  Plant response rating, Soybean: 0
soybean; [4]
  Plant response rating, Soybean: 0
soybean; [5]
  Soybean plant response rating: 0
soybean; [6]
  Soybean plant response rating: 0
soybean; [7]
  Soybean plant response rating: 1
soybean; [8]
  Soybean plant response rating: 1
velvetleaf; [1]
  Velvetleaf plant response rating: 0
velvetleaf; [2]
  Velvetleaf plant response rating: 0
velvetleaf; [3]
  Plant response rating, Velvetleaf: 0
velvetleaf; [4]
  Plant response rating, Velvetleaf: 0
velvetleaf; [5]
  Velvetleaf plant response rating: 0
velvetleaf; [6]
  Velvetleaf plant response rating: 0
velvetleaf; [7]
  Velvetleaf plant response rating: 0
velvetleaf; [8]
  Velvetleaf plant response rating: 0
Wild oat; [1]
  Wild oats plant response rating: 0
Wild oat; [2]
  Wild oats plant response rating: 0
Wild oat; [3]
  Plant response rating, Wild oats: 0
Wild oat; [4]
  Plant response rating, Wild oats: 0
Wild oat; [5]
  Wild oats plant response rating: 0
Wild oat; [6]
  Wild oats plant response rating: 0
Wild oat; [7]
  Wild oats plant response rating: 0
Wild oat; [8]
  Wild oats plant response rating: 0
cocklebur; [1]
  Cocklebur plant response rating: 0
cocklebur; [2]
  Cocklebur plant response rating: 0
cocklebur; [3]
  Plant response rating, Cocklebur: 0
cocklebur; [4]
  Plant response rating, Cocklebur: 0
cocklebur; [5]
  Cocklebur plant response rating: 0
cocklebur; [6]
  Cocklebur plant response rating: 0
cocklebur; [7]
  Cocklebur plant response rating: 0
cocklebur; [8]
  Cocklebur plant response rating: 0
wheat; [1]
  Wheat plant response rating: 0
wheat; [2]
  Wheat plant response rating: 0
wheat; [3]
  Plant response rating, Wheat: 0
wheat; [4]
  Plant response rating, Wheat: 0
wheat; [5]
  Wheat plant response rating: 0
wheat; [6]
  Wheat plant response rating: 0
wheat; [7]
  Wheat plant response rating: 0
wheat; [8]
  Wheat plant response rating: 0
Sugar beet; [1]
  Sugarbeets plant response rating: 0
Sugar beet; [2]
  Sugarbeets plant response rating: 0
Sugar beet; [3]
  Plant response rating, Sugarbeets: 0
Sugar beet; [4]
  Plant response rating, Sugarbeets: 0
Sugar beet; [5]
  Sugarbeets plant response rating: 0
Sugar beet; [6]
  Sugarbeets plant response rating: 0
Sugar beet; [7]
  Sugarbeets plant response rating: 0
Sugar beet; [8]
  Sugarbeets plant response rating: 0
crabgrass; [1]
  Crabgrass plant response rating: 0
crabgrass; [2]
  Crabgrass plant response rating: 0
crabgrass; [3]
  Plant response rating, Crabgrass: 5
crabgrass; [4]
  Plant response rating, Crabgrass: 6
crabgrass; [5]
  Crabgrass plant response rating: 9
crabgrass; [6]
  Crabgrass plant response rating: 9
crabgrass; [7]
  Crabgrass plant response rating: 0
crabgrass; [8]
  Crabgrass plant response rating: 0
rape; [1]
  Rape plant response rating: 0
rape; [2]
  Rape plant response rating: 0
rape; [3]
  Plant response rating, Rape: 0
rape; [4]
  Plant response rating, Rape: 0
rape; [5]
  Rape plant response rating: 0
rape; [6]
  Rape plant response rating: 0
rape; [7]
  Rape plant response rating: 0
rape; [8]
  Rape plant response rating: 0
corn; [1]
  Corn plant response rating: 0
corn; [2]
  Corn plant response rating: 0
corn; [3]
  Plant response rating, Corn: 0
corn; [4]
  Plant response rating, Corn: 0
corn; [5]
  Corn plant response rating: 0
corn; [6]
  Corn plant response rating: 0
corn; [7]
  Corn plant response rating: 0
corn; [8]
  Corn plant response rating: 0
Smallflower flatsedge; [9]
  Plant response rating, S. Flatsedge (0 to 10 scale, 0 is no effect, 10 is complete control): 0
Smallflower flatsedge; [10]
  S. Flatsedge plant response rating (0 to 10 scale, 0 is no effect, 10 is complete control): 0
Smallflower flatsedge; [11]
  S. Flatsedge plant response rating: 0
Smallflower flatsedge; [12]
  S. Flatsedge plant response rating: 0
Surinam grass; Postemergence, Rate 250 g/ha, scale 0 to 10, 0 no effect, 10 complete control
  B. signalgrass plant response rating: 0
Surinam grass; [2]
  B. signalgrass plant response rating: 0
Surinam grass; [3]
  Plant response rating, B. signalgrass: 0
Surinam grass; [4]
  Plant response rating, B. signalgrass: 0
Surinam grass; [5]
  B. signalgrass plant response rating: 0
Surinam grass; [6]
  B. signalgrass plant response rating: 10
Surinam grass; [7]
  B. signalgrass plant response rating: 0
Surinam grass; [8]
  B. signalgrass plant response rating: 0
